According to patent US8987320B2, “Solid salt forms of a pyrrole substituted 2-indolinone” (Zoetis LLC, priority 2005, dated 2015):
≈ marks a conversion by molar mass, not a printed value.

Key:
[1] = Estimation of solubility in various solvents by step-wise solvent addition; format: physicochemical; settings: 23 °C, organic solvent or mixture, thermodynamic from solid, 23° C., read-out: Estimated solubility
Description: Samples of 1-2 mg of Compound I phosphate (lot 35282-CS-51) were transferred to 10 mL glass vials (tared) and were weighed (accurate to 0.1 mg). Solvents were added to the vials (one solvent to each vial) in a step-wise fashion, with 0.5 mL of solvent added at each step. Solvents used were buffer (pH=2), buffer (pH=5), water, methanol, tetrahydrofuran (THF), acetonitrile, and acetone. After each addition, the vial was capped and shaken. The dissolution of solid was visually observed. If no obvious dissolution was observed, more solvent was added immediately. If dissolution was apparent, the vial was left on the bench for at least 30 minutes before the next addition of solvent. This step was repeated until no crystals were visible against a black and a white background. The solubility was then bracketed by dividing the weight of the compound by the final volume and the volume before the last addition. If a solid remained after the addition of 10 mL of solvent, the solubility was expressed as less than the weight divided by the final volume. If the solid was completely dissolved after the first addition of solvent, the solubility was expressed as greater than the weight divided by the solvent volume. All experiments were conducted at room temperature.

[2] = Solubility of Compound I in pH 6 phosphate buffer; format: physicochemical; settings: aqueous buffer; pH 6 phosphate buffer at 25° C.
Description: Compound I readily crystallizes. Its solubility is about 10 μg/mL in pH 6 phosphate buffer at 25° C. When the compound was synthesized, very fine particles precipitated out of solution during the last step of synthesis. Subsequent isolation of these fine particles by filtration was slow, and a hard cake resulted after filtration. There is a need for a salt of Compound I which has physical stability and desirable physical properties.

[3] = Dynamic moisture sorption gravimetry (DMSG) of salts of Compound I; format: physicochemical
Description: Dynamic Moisture Sorption Gravimetry (DMSG).
DMSG isotherm was collected on a temperature controlled atmospheric microbalance. Approximately 10 mg samples were placed in the sample pan of the balance. The humidity was sequentially varied from room relative humidity (RH) to 0% RH and was then increased to 90% RH followed by a decrease of RH to 0% again in 3% RH steps. The mass was then measured every two minutes. The RH was stepped to the next target value when change of the sample mass was less than 0.5 μg in 10 min. The Visual Basic program dmsgscn2.exe was used to control the data collection and export the information to an Excel spreadsheet.

[4] = set-up: species or system rodent; settings: in vivo
Description: Based on preclinical work in rodent models, the therapeutic range of Compound I for target inhibition was considered to be 50-100 ng/ml for 12 h of a 24-h dosing period. […] In one animal, the plasma concentration of Compound I phosphate was outside the range of the other samples (0.3 ng/ml).

canine MCTs = settings: dog, in vivo; cited from earlier work
KIT = settings: in vitro, cited from earlier work
[5] = Relative physical stability of Compound I phosphate polymorphs standing in solvent; format: physicochemical; settings: among non-solvated polymorphs, in contact with solvent
Description: Such concentrated solutions were prepared by dissolving Compound I free base in about 1 M phosphoric acid. For example, about 70 mg of Compound I free base could be dissolved in 1 mL of 1 M phosphoric acid. However, the amount of Compound I free base and phosphoric acid used depended on the desired concentration and batch size of the solution. In the example in which the precipitate was vacuum filtered immediately after precipitation, about 1 mL of the desired solution was then dripped into about 10 mL of ten anti-solvents to precipitate the salt crystals out. These solvents were water plus acetonitrile (ANC), ethanol, methanol, acetone, acetonitrile, THF, ethyl acetate, hexane, methylene chloride (CH2Cl2), and isopropyl alcohol (IPA). In the example in which the precipitate was vacuum filtered after standing overnight or for three days, the additional solvents of methyl ethyl ketone (MEK) and dioxane were used. Some organic solvents, e.g., ethyl acetate, hexane, CH2C12, are not miscible with water and two layers of solvents were observed. […] In those cases, about 1 mL of methanol was added as a bridging solvent, to increase the miscibility between the two layers. Methanol appeared to work well to increase the miscibility because colorless organic layer became yellow as soon as methanol was added. […] The powder was then analyzed. […]

Structure (SMILES): Cc1[nH]c(/C=C2\C(=O)Nc3ccc(F)cc32)c(C)c1C(=O)NCCN1CCCC1 [Compound I free base (polymorph Form A), 5-[5-fluoro-2-oxo-1,2-dihydro-indol-(3Z)-ylidenemethyl]-2,4-dimethyl-1H-pyrrole-3-carboxylic acid (2-pyrrolidin-1-yl-ethyl)-amide]
- solubility ([1]; acetone, Acetone): < 160 µg/mL
- solubility ([1]; acetonitrile, Acetonitrile): < 80 µg/mL
- solubility ([1]; methanol, methanol): 210 to 310 µg/mL (≈ 530 to 782 µM)
- solubility ([1]; tetrahydrofuran (THF), THF): 320 to 400 µg/mL (≈ 807 to 1010 µM)

Structure (SMILES): Cc1[nH]c(/C=C2\C(=O)Nc3ccc(F)cc32)c(C)c1C(=O)NCCN1CCCC1 [Compound I, 5-[5-fluoro-2-oxo-1,2-dihydro-indol-(3Z)-ylidenemethyl]-2,4-dimethyl-1H-pyrrole-3-carboxylic acid (2-pyrrolidin-1-yl-ethyl)-amide]
- solubility [2]: ~10 µg/mL (≈ 25.2 µM)
- % water at 80% RH [3]: ~1%
- therapeutic range for target inhibition (plasma) [4]: 50 to 100 ng/mL
- canine MCTs with durable objective responses (partial and complete responses) (canine MCTs): 11 of 22 canine MCTs
- potency of blocking phosphorylation of wild-type vs ITD mutant KIT (KIT; cellular assays): comparable potency
- effect on malignant mast cell lines expressing various forms of mutant KIT (KIT): inhibit KIT phosphorylation, arrest cell proliferation, and induce cell cycle arrest and apoptosis

Structure (SMILES): Cc1[nH]c(/C=C2\C(=O)Nc3ccc(F)cc32)c(C)c1C(=O)NCCN1CCCC1.O=C(O)CC(O)(CC(=O)O)C(=O)O [Compound I citrate]
- % water at 80% RH [3]: ~3.8%
- water at 80 percent humidity ([3]; 80 percent relative humidity): about 3.8%

Structure (SMILES): Cc1[nH]c(/C=C2\C(=O)Nc3ccc(F)cc32)c(C)c1C(=O)NCCN1CCCC1 [Form I]
- relative stability of the solid phase [5]: most stable solid phase
